Results from patent US20150290193A1, “NOVEL APPROACHES FOR INDIVIDUALIZED THERAPY OF PANCREATIC DUCTAL ADENOCARCINOMA” (HI-STEM gGmbH, priority 2012, published 2015).

Assays:
stable PDAC cell lines = experiment: Dose-escalation IC50 determination, cell viability by CellTiterBlue; type: cell-based, human; settings: 72 h; 3-fold serial dilutions in quadruplicates
Description: For calculation of the IC50, 3-fold serial dilutions of selected compounds were screened in quadruplicates, incubated for 72 h after which cell viability was assessed using CellTiterBlue as described. Raw data was normalized to positive and negative controls present on each individual plate IC50 values were calculated using GraphPad Prism (Graph Pad Software, La Jolla).
For calculation of the IC50 serial dilutions of selected compounds were screened in quadruplicates. In brief, 8,000 cells/well were seeded 24 h prior to addition of individual compounds in 96-well plates. After incubation for 72 h, cell viability was assessed using CellTiterBlue (Promega, Mannheim) as described. Raw data was normalized to positive and negative controls present on each individual plate. IC50 values were calculated using GraphPad Prism (Graph Pad Software, La Jolla).

[1] = test system: PACO tumors (transplanted human PDAC tumors); experiment: In vivo drug screen, subcutaneous PACO tumors in NSG mice, relative tumor volume; settings: tumors of all three subtypes; 125 mg/kg i.p. twice weekly
Description: Three groups of mice that each carried transplanted human tumors of one either the sensitive or the resistant subtypes were treated with Dasatinib, either alone or in combination with the chemotherapeutic agent Gemcitabine.
PACO tumors were established by injecting 5×10^5 cells subcutaneously into a cohort 20 NOD.Cg-Prkdcscid Il2rgtm1Wjl (NSG) mice. After the tumors reached a size of approx. 200 mm^3, mice were randomized into two groups of each 10 mice—Control, Gemcitabine, Dasatinib or combination of both. Gemcitabine was dissolved in 0.8% buffered saline and administered twice weekly at 125 mg/kg i.p. Dasatinib was prepared in citrate/citric acid buffer (pH 3) and administered daily via oral gavage at 25 mg/kg. Tumor volume was determined twice weekly via caliper measurements and calculated according the formula (length×height×width)×(π/6). Relative tumor growth was calculated for each individual tumor in relation to the volume calculated as of the start of the experiment.
Tumor size is expressed as relative volume normalized to the day of start of treatment.

Cc1nc(Nc2ncc(C(=O)Nc3c(C)cccc3Cl)s2)cc(N2CCN(CCO)CC2)n1 [Dasatinib]
fold lower IC50 value of the classical subtype versus exocrine-like and quasi-mesenchymal PDAC cells (stable PDAC cell lines): > 10,000 fold

Nc1ccn([C@@H]2O[C@H](CO)[C@@H](O)C2(F)F)c(=O)n1 [Gemcitabine]
tumor growth, Gemcitabine alone [1]: growth-inhibitory effect on tumors of all three subtypes, however did not lead to a complete stop in tumor growth
